Assays:
AZD5153 = compound: COc1nnc2ccc(N3CCC(c4ccc(OCCN5CCN(C)C(=O)[C@H]5C)cc4)CC3)nn12 [AZD5153]; conditions: max 1 µM
Summary of the method: (§1)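 Following 24 hours at 37°C and 5% CO2, cancer cell lines in 1536-well plates with 7.5 μl DMEM/F12 or RPMI and 10% FBS were dosed for 72 hours, final DMSO typically being 0.2%. CellTiter-Glo 2.0 luminescence, scaled between blank-well and DMSO-well means, gave the viability readout. Dose responses were fitted to a two-parameter logistic curve with a non-linear mixed effects model, and the single-agent IC50 was derived from this fit.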

Gefitinib = compound: COc1cc2ncnc(Nc3ccc(F)c(Cl)c3)c2cc1OCCCN1CCOCC1 [Gefitinib]; conditions: max 10 µM
Summary of the method: as §1

Olaparib = compound: O=C(c1cc(Cc2n[nH]c(=O)c3ccccc23)ccc1F)N1CCN(C(=O)C2CC2)CC1 [Olaparib]
Summary of the method: as §1

AZD8186 = compound: C[C@@H](Nc1cc(F)cc(F)c1)c1cc(C(=O)N(C)C)cc2c(=O)cc(N3CCOCC3)oc12 [AZD8186]; conditions: max 3 µM
Summary of the method: as §1

Savolitinib = compound: C[C@@H](c1ccc2nccn2c1)n1nnc2ncc(-c3cnn(C)c3)nc21 [Savolitinib]; conditions: max 1 µM
Summary of the method: as §1

AZD2811 = compound: CCN(CCO)CCCOc1ccc2c(Nc3cc(CC(=O)Nc4cccc(F)c4)[nH]n3)ncnc2c1 [AZD2811]; conditions: max 1 µM
Summary of the method: as §1

Palbociclib = compound: CC(=O)c1c(C)c2cnc(Nc3ccc(N4CCNCC4)cn3)nc2n(C2CCCC2)c1=O [Palbociclib]; conditions: max 10 µM
Summary of the method: as §1

SG3199 = compound: CC1=CN2[C@@H](C1)C=NC3=CC(=C(C=C3C2=O)OC)OCCCCCOC4=C(C=C5C(=C4)N=C[C@@H]6CC(=CN6C5=O)C)OC [SG3199]; conditions: max 0.001 µM
Summary of the method: as §1

AZD4320 = compound: CN(CC[C@H](CSC1=CC=CC=C1)NC2=C(C=C(C=C2)S(=O)(=O)NC(=O)C3=CC=C(C=C3)N4CCC(CC4)[C@H](C5=CC=CC=C5C6=CC=C(C=C6)Cl)O)S(=O)(=O)C(F)(F)F)CCO [AZD4320]; conditions: max 1 µM
Summary of the method: as §1

AZD6738 = compound: C[C@@H]1COCCN1C2=NC(=NC(=C2)C3(CC3)[S@](=N)(=O)C)C4=C5C=CNC5=NC=C4 [AZD6738]; conditions: max 10 µM
Summary of the method: as §1

AZD1775 = compound: C=CCn1c(=O)c2cnc(Nc3ccc(N4CCN(C)CC4)cc3)nc2n1-c1cccc(C(C)(C)O)n1 [AZD1775]
Summary of the method: as §1

Dasatinib = compound: CC1=C(C(=CC=C1)Cl)NC(=O)C2=CN=C(S2)NC3=CC(=NC(=N3)C)N4CCN(CC4)CCO [Dasatinib]; conditions: max 2 µM
Summary of the method: as §1

Lapatinib = compound: CS(=O)(=O)CCNCc1ccc(-c2ccc3ncnc(Nc4ccc(OCc5cccc(F)c5)c(Cl)c4)c3c2)o1 [Lapatinib]; conditions: max 10 µM
Summary of the method: as §1

Venetoclax = compound: CC1(C)CCC(CN2CCN(c3ccc(C(=O)NS(=O)(=O)c4ccc(NCC5CCOCC5)c([N+](=O)[O-])c4)c(Oc4cnc5[nH]ccc5c4)c3)CC2)=C(c2ccc(Cl)cc2)C1 [Venetoclax]; conditions: max 1 µM
Summary of the method: as §1

AZD7648 = compound: Cc1cc2ncnn2cc1Nc1ncc2c(n1)n(C1CCOCC1)c(=O)n2C [AZD7648]; conditions: max 10 µM
Summary of the method: as §1

Taselisib = compound: Cc1nc(-c2cn3c(n2)-c2ccc(-c4cnn(C(C)(C)C(N)=O)c4)cc2OCC3)n(C(C)C)n1 [Taselisib]; conditions: max 10 µM
Summary of the method: as §1

Selumetinib = compound: Cn1cnc2c(F)c(Nc3ccc(Br)cc3Cl)c(C(=O)NOCCO)cc21 [Selumetinib]
Summary of the method: as §1

Trametinib = compound: CC(=O)Nc1cccc(-n2c(=O)n(C3CC3)c(=O)c3c(Nc4ccc(I)cc4F)n(C)c(=O)c(C)c32)c1 [Trametinib]; conditions: max 1 µM
Summary of the method: as §1

Crizotinib = compound: C[C@@H](Oc1cc(-c2cnn(C3CCNCC3)c2)cnc1N)c1c(Cl)ccc(F)c1Cl [Crizotinib]; conditions: max 10 µM
Summary of the method: as §1

Alisertib = compound: COc1cc(Nc2ncc3c(n2)-c2ccc(Cl)cc2C(c2c(F)cccc2OC)=NC3)ccc1C(=O)O [Alisertib]; conditions: max 10 µM
Summary of the method: as §1

Capivasertib = compound: C1CN(CCC1(C(=O)N[C@@H](CCO)C2=CC=C(C=C2)Cl)N)C3=NC=NC4=C3C=CN4 [Capivasertib]
Summary of the method: as §1

Doxorubicin = compound: COc1cccc2c1C(=O)c1c(O)c3c(c(O)c1C2=O)C[C@@](O)(C(=O)CO)C[C@@H]3O[C@H]1C[C@H](N)[C@H](O)[C@H](C)O1 [Doxorubicin]; conditions: max 1 µM
Summary of the method: as §1

AZD5991 = compound: Cc1c2c(nn1C)CSCc1cc(n(C)n1)CSc1cc(c3ccccc3c1)OCCCc1c(C(=O)O)n(C)c3c-2c(Cl)ccc13 [AZD5991]; conditions: max 1 µM
Summary of the method: as §1

AZD1390 = compound: CC(C)n1c(=O)n(C)c2cnc3cc(F)c(-c4ccc(OCCCN5CCCCC5)nc4)cc3c21 [AZD1390]; conditions: max 0.3 µM
Summary of the method: as §1

AZD0156 = compound: CN(C)CCCOc1ccc(-c2ccc3ncc4c(c3c2)n(C2CCOCC2)c(=O)n4C)cn1 [AZD0156]
Summary of the method: as §1

Prexasertib = compound: COc1cccc(OCCCN)c1-c1cc(Nc2cnc(C#N)cn2)n[nH]1 [Prexasertib]; conditions: max 1 µM
Summary of the method: as §1

SN-38 = compound: CCc1c2c(nc3ccc(O)cc13)-c1cc3c(c(=O)n1C2)COC(=O)[C@]3(O)CC [SN-38]; conditions: max 0.3 µM
Summary of the method: as §1

Cell Line	IC50, cell viability 72 h (AZD5153) [µM]	IC50, cell viability 72 h (Gefitinib) [µM]	IC50, cell viability 72 h (Olaparib; max 10 µM) [µM]	IC50, cell viability 72 h (AZD8186) [µM]	IC50, cell viability 72 h (Savolitinib) [µM]	IC50, cell viability 72 h (AZD2811) [µM]	IC50, cell viability 72 h (Palbociclib) [µM]	IC50, cell viability 72 h (SG3199) [µM]	IC50, cell viability 72 h (AZD4320) [µM]	IC50, cell viability 72 h (AZD6738) [µM]	IC50, cell viability 72 h (AZD1775; max 3 µM) [µM]	IC50, cell viability 72 h (Dasatinib) [µM]	IC50, cell viability 72 h (Lapatinib) [µM]	IC50, cell viability 72 h (Venetoclax) [µM]	IC50, cell viability 72 h (AZD7648) [µM]	IC50, cell viability 72 h (Taselisib) [µM]	IC50, cell viability 72 h (Selumetinib; max 10 µM) [µM]	IC50, cell viability 72 h (Trametinib) [µM]	IC50, cell viability 72 h (Crizotinib) [µM]	IC50, cell viability 72 h (Alisertib) [µM]	IC50, cell viability 72 h (Capivasertib; max 10 µM) [µM]	IC50, cell viability 72 h (Doxorubicin) [µM]	IC50, cell viability 72 h (AZD5991) [µM]	IC50, cell viability 72 h (AZD1390) [µM]	IC50, cell viability 72 h (AZD0156; max 3 µM) [µM]	IC50, cell viability 72 h (Prexasertib) [µM]	IC50, cell viability 72 h (SN-38) [µM]	IC50, cell viability 72 h (Olaparib; max 3 µM) [µM]	IC50, cell viability 72 h (Capivasertib; max 3 µM) [µM]	IC50, cell viability 72 h (AZD1775; max 1 µM) [µM]	IC50, cell viability 72 h (Selumetinib; max 3 µM) [µM]	IC50, cell viability 72 h (AZD0156; max 1 µM) [µM]
HT-144 (Melanoma)	0.981	> 10	> 10	> 3	> 1	> 1	> 10	> 0.001	> 1	3.48	0.25	> 2	8.83	> 1	> 10	5.01	0.632	0.0179	4.71	> 10	5.45	> 1	0.221	> 0.3	> 3	0.139	0.0681	–	–	–	–	–
TOV-21G (Ovarian Carcinoma)	0.334	> 10	> 10	> 3	> 1	> 1	> 10	> 0.001	> 1	3.65	0.754	0.139	> 10	> 1	> 10	6.23	> 10	> 1	9.3	2.95	1.55	> 1	> 1	> 0.3	> 3	0.299	0.148	–	–	–	–	–
SNU-1 (Gastric Carcinoma)	0.265	> 10	> 10	> 3	> 1	> 1	> 10	> 0.001	> 1	5.01	1.35	> 2	> 10	> 1	> 10	9.03	> 10	0.757	> 10	> 10	> 10	0.237	0.938	> 0.3	> 3	0.0971	0.0129	–	–	–	–	–
Daudi (Burkitt's Lymphoma)	0.243	> 10	> 10	> 3	> 1	> 1	> 10	> 0.001	> 1	3.88	1.02	0.627	> 10	> 1	> 10	8.26	> 10	> 1	5.56	0.884	> 10	0.173	> 1	> 0.3	> 3	0.0292	0.00852	–	–	–	–	–
M14 (Melanoma)	–	–	–	–	–	–	–	–	–	–	0.624	–	–	–	–	–	–	–	–	–	–	–	–	–	> 3	–	–	> 3	> 3	–	–	–
NCI-H2170 (Squamous Cell Lung Carcinoma)	> 1	1.98	> 10	> 3	> 1	0.391	> 10	> 0.001	0.665	7.67	0.678	> 2	0.362	> 1	> 10	1.54	> 10	> 1	7.38	1.1	5.47	0.539	> 1	> 0.3	> 3	0.0468	0.0136	–	–	–	–	–
RVH-421 (Melanoma)	–	–	> 10	3	–	> 1	–	> 0.001	> 1	> 10	–	–	–	> 1	> 10	> 10	–	> 1	–	> 10	–	> 1	> 1	–	–	> 1	> 0.3	–	> 3	> 1	> 3	> 1
SK-N-DZ (Neuroblastoma)	0.294	> 10	> 10	> 3	> 1	> 1	5.33	> 0.001	0.628	2.39	0.278	> 2	5.56	> 1	> 10	> 10	> 10	> 1	1.86	0.256	> 10	0.748	> 1	> 0.3	> 3	0.0169	0.0247	–	–	–	–	–
NCI-H1975 (Lung Adenocarcinoma)	0.359	> 10	> 10	> 3	> 1	> 1	> 10	> 0.001	> 1	> 10	1.62	1.01	> 10	> 1	> 10	1.22	> 10	> 1	> 10	> 10	3.84	0.497	> 1	> 0.3	> 3	> 1	> 0.3	–	–	–	–	–
IGROV-1 (Ovarian Carcinoma)	0.39	1.55	> 10	1.32	> 1	> 1	5.56	> 0.001	> 1	2.9	0.191	0.0169	0.764	> 1	> 10	0.0172	1.07	0.0196	9.83	1.63	0.438	0.924	> 1	> 0.3	> 3	0.054	0.177	–	–	–	–	–
ATN-1 (T-Lymphoblastic Leukemia)	0.482	> 10	> 10	2.2	> 1	0.0188	5.84	> 0.001	0.13	0.664	0.0601	1.7	> 10	> 1	> 10	0.083	> 10	> 1	1.41	0.0401	2.02	0.0454	0.109	> 0.3	> 3	0.00209	0.00553	–	–	–	–	–
RS4-11 (B-Lymphoblastic Leukemia)	0.191	> 10	> 10	> 3	> 1	0.00884	4.98	> 0.001	0.00382	1.39	0.268	> 2	> 10	0.00579	> 10	7.52	> 10	> 1	1.52	0.0322	9.4	0.46	0.723	> 0.3	> 3	0.0167	0.00479	–	–	–	–	–
HT-1197 (Bladder Carcinoma)	0.697	> 10	> 10	> 3	> 1	> 1	> 10	> 0.001	> 1	> 10	2.15	> 2	> 10	> 1	> 10	2.89	> 10	> 1	> 10	> 10	> 10	> 1	> 1	> 0.3	> 3	> 1	> 0.3	–	–	–	–	–
SUP-HD1 (Hodgkin's Lymphoma)	0.224	> 10	> 10	> 3	> 1	0.995	> 10	> 0.001	0.0126	4.04	1.33	> 2	> 10	0.0156	> 10	5.27	> 10	> 1	6.54	5.4	7.9	0.0996	0.516	> 0.3	> 3	0.0155	0.00249	–	–	–	–	–
NCI-H1048 (Small Cell Lung Carcinoma)	> 1	> 10	> 10	> 3	> 1	0.323	> 10	> 0.001	0.505	> 10	0.798	> 2	> 10	> 1	> 10	0.348	> 10	> 1	> 10	0.497	9.21	0.261	–	> 0.3	> 3	0.132	0.00299	–	–	–	–	–
TK (B-Cell Non-Hodgkin's Lymphoma)	> 1	> 10	> 10	> 3	> 1	> 1	> 10	> 0.001	–	1.02	0.293	> 2	> 10	0.0462	> 10	> 10	> 10	> 1	> 10	2.79	> 10	> 1	> 1	> 0.3	> 3	0.0108	0.0167	–	–	–	–	–
GRANTA-519 (B-Cell Non-Hodgkin's Lymphoma)	> 1	> 10	> 10	> 3	> 1	> 1	> 10	> 0.001	–	1.95	0.55	> 2	> 10	> 1	> 10	> 10	> 10	> 1	> 10	> 10	> 10	0.869	> 1	> 0.3	> 3	0.0174	0.00406	–	–	–	–	–
